Measurements reported in PMC5607274, “An iterative compound screening contest method for identifying target protein inhibitors using the tyrosine-protein kinase Yes” (Scientific Reports, 2017).

What follows are molecules tested against T1, human recombinant Yes [a.a. 2–543 (end)] (Homo sapiens, UniProt P07947) (assay: ADP-Glo kinase assay, inhibition rates of Yes phosphorylation activity (first and second screening)). Conditions: first screening; mean of n = 4 wells; 10 μmol L−1 compound.
T1 construct: human recombinant Yes [a.a; 2–543 (end)]; purchased BPS Bioscience 40488
T1 sequence (P07947 2-543): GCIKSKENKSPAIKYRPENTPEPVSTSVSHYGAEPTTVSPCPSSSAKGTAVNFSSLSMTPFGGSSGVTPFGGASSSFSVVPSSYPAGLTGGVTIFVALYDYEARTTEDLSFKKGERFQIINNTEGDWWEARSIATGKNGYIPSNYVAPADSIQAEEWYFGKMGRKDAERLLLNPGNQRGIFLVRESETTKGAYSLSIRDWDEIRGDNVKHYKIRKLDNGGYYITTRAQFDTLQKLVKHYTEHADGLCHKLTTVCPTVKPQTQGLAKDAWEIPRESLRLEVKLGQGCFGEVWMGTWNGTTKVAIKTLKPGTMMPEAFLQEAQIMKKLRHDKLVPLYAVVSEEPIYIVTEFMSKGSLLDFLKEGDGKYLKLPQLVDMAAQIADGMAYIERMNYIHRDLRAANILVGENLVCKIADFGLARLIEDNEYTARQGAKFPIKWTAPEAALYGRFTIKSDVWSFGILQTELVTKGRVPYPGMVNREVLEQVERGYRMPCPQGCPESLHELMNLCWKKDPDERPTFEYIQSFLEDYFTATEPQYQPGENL
Type: biochemical
Method in brief: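 Hits from a first pass were rescreened after re-dissolution from fresh powder. The first pass reported the mean inhibition rate of quadruplicate wells per compound. Activity was that of recombinant human Yes [a.a. 2–543] kinase, read out with the ADP-Glo ADP-detection method.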

SMILES | First screening IR (inhibition rate) [%]
COc1ccc(-n2c(-c3ccccc3)cn3c4c(=O)n(CCN5CCCCC5)c(=O)n(C)c4nc23)cc1 [Compound Z241121498] | -22
Cc1ccc(Cn2c(=O)c3c(nc4n(-c5ccc(S(N)(=O)=O)cc5)c(C)cn34)n(C)c2=O)cc1 [Compound Z244561242] | 9
Nc1nc(NCC(=O)O)nc(NCC2CCCO2)c1[N+](=O)[O-] (centres unmarked) [Compound Z244561600] | 9
COc1ccc(Nc2nc(N3CCCCC3)nc(N)c2[N+](=O)[O-])cc1 [Compound Z245295930] | 8
NC(=O)C(c1ccccc1)N1CCC(CCc2ccc(O)cc2)CC1 (centres unmarked) [Compound Z245304076] | -19
Cn1c(=O)[nH]c(=O)c2c1nc(N1CCN(C/C=C/c3ccccc3)CC1)n2Cc1ccc(Cl)cc1 [Compound Z246071802] | -14
O=S(=O)(Nc1cnc2ccccc2c1)c1ccc(Cl)c(Cl)c1 [Compound Z246801514] | 3
CS(=O)(=O)c1ccc(S(=O)(=O)Cl)cc1 [Compound Z248485700] | 73
O=C1CN(C(=O)c2nn(-c3ccc(F)cc3)c3c2CCCCC3)CCN1 [Compound Z254636716] | 10
O=C(Nc1cccc(C#Cc2cccs2)c1)C1CC2CCCC(C1)C2=O (centres unmarked) [Compound Z271080962] | -2
CS(=O)(=O)c1ccccc1S(=O)(=O)Cl [Compound Z271096440] | 59
Cc1cn2c3c(=O)n(CC(C)C)c(=O)n(C)c3nc2n1-c1ccc(S(N)(=O)=O)cc1 [Compound Z271111810] | 4
c1ccc(-c2nc(Sc3n[nH]c(-c4ccncc4)n3)nc3ccccc23)cc1 [Compound Z271700602] | -1
Nc1nccnc1C(=O)Nc1ncc(Cc2cc(F)cc(F)c2)s1 [Compound Z281652038] | -1
CCN(CC)Cc1ccc(CNC(=O)c2ccccc2SCc2cscn2)cc1 [Compound Z283831144] | 33
CS(=O)(=O)c1ccc(S(=O)(=O)N2CCCC2)cc1 [Compound Z285664940] | 8
CS(=O)(=O)c1ccccc1S(=O)(=O)N1CCCC1 [Compound Z285664942] | -3
CC1CC(C)CN(S(=O)(=O)c2ccccc2S(C)(=O)=O)C1 (centres unmarked) [Compound Z285665176] | 55
CCCN(CCC)S(=O)(=O)c1ccc(S(C)(=O)=O)cc1 [Compound Z285665192] | 14
CN(Cc1ccccc1Cl)S(=O)(=O)c1ccccc1S(C)(=O)=O [Compound Z285666434] | -2

SMILES | First screening IR (inhibition rate) [%]
FC(F)(F)c1ccnc(Nc2ccc3c(c2)OCO3)n1 [Compound Z285674740] | 21
FC(F)(F)c1ccnc(Nc2ccc(N3CCOCC3)cc2)n1 [Compound Z285679120] | 7
FC(F)(F)c1ccnc(Nc2cccc(/C=C/c3ccccn3)c2)n1 [Compound Z285694006] | 12
O=C1CCCN1c1ccc(Nc2nccc(C(F)(F)F)n2)cc1 [Compound Z285697278] | -12
FC(F)(F)c1ccnc(Nc2ccc3[nH]ncc3c2)n1 [Compound Z285702074] | 0
FC(F)(F)c1ccnc(Nc2ccc3c(c2)OC2(CCCCC2)O3)n1 [Compound Z285712986] | 4
CCCN(CCC)S(=O)(=O)c1cccc(S(=O)(=O)N(C)C)c1 [Compound Z285950112] | -4
CN(C)S(=O)(=O)c1cccc(S(=O)(=O)N(C)C)c1 [Compound Z285953016] | 13
CNS(=O)(=O)c1cccc(S(=O)(=O)N(C)C)c1 [Compound Z285953204] | 2
CC(C)c1cccc(NS(=O)(=O)c2ccc(-n3ncc(Cl)c(Cl)c3=O)cc2)c1 [Compound Z286115224] | 6
CC1CCCC(C)C12NC(=O)N(CN(C)CC(=O)Nc1ccccc1Cl)C2=O (centres unmarked) [Compound Z286135428] | 5
CC(C)c1ccc(SCc2nc(N)nc(N(C)C)n2)cc1 [Compound Z290622280] | 4
Cc1c(C)c(C)c(C(=O)OCC(=O)NCC(=O)N2CCCC2)c(C)c1C [Compound Z291423432] | -6
CC(Sc1n[nH]c(/C=C/c2ccccc2)n1)c1nc(C(C)(C)C)no1 (centres unmarked) [Compound Z298272042] | 12
CS(=O)(=O)c1cccc(S(N)(=O)=O)c1 [Compound Z299680982] | 5
CCC1CCCCN1S(=O)(=O)c1ccc(S(C)(=O)=O)cc1 (centres unmarked) [Compound Z300098278] | 51
CN(C)S(=O)(=O)c1ccc(S(C)(=O)=O)cc1 [Compound Z300114426] | -8
Cc1ccc(S(=O)(=O)N2CCCN(S(=O)(=O)N3CC(C)CC(C)C3)CC2)cc1 (centres unmarked) [Compound Z300467774] | 4
CN(C1CCCCCC1)S(=O)(=O)c1cccc(S(C)(=O)=O)c1 [Compound Z300508876] | -7
CC(C)CN1CCOC(CNC(=O)c2cc3cc(F)ccc3[nH]2)C1 (centres unmarked) [Compound Z300664804] | -5

More lines, now with the values ahead:

First screening IR (inhibition rate) [%] | SMILES
28 | Clc1ccc(-c2csc(Nc3ccccc3)n2)s1 [Compound Z238765362]
1 | CC(=O)c1ccc(N2CCN(CC(=O)c3cc(C)[nH]c3C)CC2)c(F)c1 [Compound Z238811284]
64 | CC(C(=O)NC(c1ccccc1)c1ccccc1)N1CCN(c2ncnc3c2cnn3C)CC1 (centres unmarked) [Compound Z238831180]
-1 | Cn1c(=O)[nH]c(=O)c2c1nc(CN1CCN(c3cccc(Cl)c3)CC1)n2CCCc1ccccc1 [Compound Z238883342]
2 | Cn1c(=O)[nH]c(=O)c2c1nc(N1CCC(Cc3ccccc3)CC1)n2CCSc1nnnn1-c1ccccc1 [Compound Z239083338]
47 | Cn1c(=O)[nH]c(=O)c2c1nc(N1CCN(Cc3ccccc3)CC1)n2CCSc1nnnn1-c1ccccc1 [Compound Z239092730]
1 | Cc1nn(C)c2ncc(NC(=O)c3cc(-c4ccco4)nc4onc(C)c34)cc12 [Compound Z239539964]
13 | NC(=O)C1CCCN(c2nc(-c3ccncc3)nc3ccccc23)C1 (centres unmarked) [Compound Z239623050]
22 | O=C(NCc1ccccn1)c1cc(-c2cccnc2)nc2c1cnn2Cc1ccco1 [Compound Z242175442]
0 | O=C(Nc1nc2cc(C(F)(F)F)ccc2n1Cc1ccco1)c1ccc2n[nH]nc2c1 [Compound Z245503032]
11 | Cc1cn2c3c(=O)n(CCN4CCCCC4)c(=O)n(C)c3nc2n1-c1ccc(Oc2ccccc2)cc1 [Compound Z247616328]
-10 | Cc1ccc(C(CNC(=O)c2cc(Cl)c[nH]2)N2CCOCC2)o1 (centres unmarked) [Compound Z254387106]
-9 | CCn1ncc2c(C(=O)N(C)C)cc(-c3cccs3)nc21 [Compound Z254580980]
7 | NC(=O)CCn1c(SCc2cn3ccccc3n2)nnc1-c1cccs1 [Compound Z269761360]
0 | Cc1sc2nc(CN3CCC(C)CC3)nc(N3CCN(C(=O)c4ccccc4F)CC3)c2c1C [Compound Z275104396]
49 | CCn1c(CSc2nnc(-c3sc(C)nc3C)o2)nc2cc(S(=O)(=O)N(C)C)ccc21 [Compound Z275500628]
10 | CCn1c(=O)c2c(nc3n(-c4ccc(N(C)C)cc4)c(C)cn23)n(C)c1=O [Compound Z278205390]
6 | Cc1cn2c3c(=O)n(CC(C)C)c(=O)n(C)c3nc2n1-c1ccc(N(C)C)cc1 [Compound Z281877508]
11 | CN(Cc1ccc(F)cc1F)C(=O)c1cc(-c2ccccc2)nc2c1cnn2Cc1ccncc1 [Compound Z283846026]
5 | CCCn1c(=O)[nH]c(=O)c2cc(C(=O)N(CC)Cc3ccc4c(c3)OCO4)cnc21 [Compound Z284160386]
-11 | CC(=O)N1CCc2cc(NC(=O)c3ccccc3SCc3cn4ccccc4n3)ccc21 [Compound Z285525778]
1 | CN1C/C(=C/c2ccc(-n3cncn3)cc2)c2nc3ccccc3c(C(=O)O)c2C1 [Compound Z285929216]
-8 | CC(c1ccccc1)N1C(=O)C(=O)N(CC(=O)c2cccn2C)C1=O (centres unmarked) [Compound Z290228874]
-2 | Cc1nn(CCC(=O)O)c2nc(-c3cccs3)cc(C(=O)O)c12 [Compound Z295455358]
-5 | COc1ccc(-n2cc(-c3ccccc3)c3c(=O)[nH]cnc32)cc1 [Compound Z295463532]
6 | CC(NC(=O)C1=NN(c2ccc(F)cc2)C(C(N)=O)C1)c1ccc(F)cc1F (centres unmarked) [Compound Z295508576]
9 | CCOC(=O)c1cc(-c2ccccc2)nc2[nH]c(=O)c3ccccc3c12 [Compound Z295883036]
-6 | O=C(Nc1nc(-c2ccc[nH]2)cs1)c1csc(-c2ccco2)n1 [Compound Z296244664]
-4 | CC(C)(C)OC(=O)N1CCc2nc(NC(=O)c3csc(-c4ccco4)n3)sc2C1 [Compound Z296452432]

Same assay, conditions: second screening, dissolved from fresh powder; n = 4; 10 μmol L−1 compound

Second screening IR (inhibition rate) [%] | SMILES
-3 | CS(=O)(=O)c1ccc(S(=O)(=O)Cl)cc1 [Compound Z248485700]
2 | CS(=O)(=O)c1ccccc1S(=O)(=O)Cl [Compound Z271096440]
